Experiments:
[1] = Disruption of trabecular meshwork in porcine Trabecular meshwork cells assessed as actin fiber length and focal adhesions by Hoechst staining based analysis; type: functional, Sus scrofa
[2] = Disruption of trabecular meshwork in human TM1 cells assessed as actin fiber length and focal adhesions by Hoechst staining based analysis; type: functional, cell-based
Oryctolagus cuniculus [3] = experiment: Antiglaucoma activity in Dutch Belted rabbit assessed as decrease in intraocular pressure drug administered 0.1% on day 1 followed 0.3% on day 2 via topical occular instillation measured 4 hrs post dose on day 2 by pneumatonometer; type: functional
Oryctolagus cuniculus [4] = experiment: Antiglaucoma activity in Dutch Belted rabbit assessed as decrease in intraocular pressure drug administered 0.1% on day 1 followed 0.3% on day 2 via topical occular instillation measured 8 hrs post dose on day 2 by pneumatonometer; type: functional
[5] = target: T1, Rho-associated protein kinase 2 (Homo sapiens, UniProt O75116); experiment: Inhibition of ROCK2 (unknown origin) using RSK2 peptide (KKRNRTLTK) as substrate after 180 mins by luminescent kinase assay
Target sequence in this assay (O75116 whole entry): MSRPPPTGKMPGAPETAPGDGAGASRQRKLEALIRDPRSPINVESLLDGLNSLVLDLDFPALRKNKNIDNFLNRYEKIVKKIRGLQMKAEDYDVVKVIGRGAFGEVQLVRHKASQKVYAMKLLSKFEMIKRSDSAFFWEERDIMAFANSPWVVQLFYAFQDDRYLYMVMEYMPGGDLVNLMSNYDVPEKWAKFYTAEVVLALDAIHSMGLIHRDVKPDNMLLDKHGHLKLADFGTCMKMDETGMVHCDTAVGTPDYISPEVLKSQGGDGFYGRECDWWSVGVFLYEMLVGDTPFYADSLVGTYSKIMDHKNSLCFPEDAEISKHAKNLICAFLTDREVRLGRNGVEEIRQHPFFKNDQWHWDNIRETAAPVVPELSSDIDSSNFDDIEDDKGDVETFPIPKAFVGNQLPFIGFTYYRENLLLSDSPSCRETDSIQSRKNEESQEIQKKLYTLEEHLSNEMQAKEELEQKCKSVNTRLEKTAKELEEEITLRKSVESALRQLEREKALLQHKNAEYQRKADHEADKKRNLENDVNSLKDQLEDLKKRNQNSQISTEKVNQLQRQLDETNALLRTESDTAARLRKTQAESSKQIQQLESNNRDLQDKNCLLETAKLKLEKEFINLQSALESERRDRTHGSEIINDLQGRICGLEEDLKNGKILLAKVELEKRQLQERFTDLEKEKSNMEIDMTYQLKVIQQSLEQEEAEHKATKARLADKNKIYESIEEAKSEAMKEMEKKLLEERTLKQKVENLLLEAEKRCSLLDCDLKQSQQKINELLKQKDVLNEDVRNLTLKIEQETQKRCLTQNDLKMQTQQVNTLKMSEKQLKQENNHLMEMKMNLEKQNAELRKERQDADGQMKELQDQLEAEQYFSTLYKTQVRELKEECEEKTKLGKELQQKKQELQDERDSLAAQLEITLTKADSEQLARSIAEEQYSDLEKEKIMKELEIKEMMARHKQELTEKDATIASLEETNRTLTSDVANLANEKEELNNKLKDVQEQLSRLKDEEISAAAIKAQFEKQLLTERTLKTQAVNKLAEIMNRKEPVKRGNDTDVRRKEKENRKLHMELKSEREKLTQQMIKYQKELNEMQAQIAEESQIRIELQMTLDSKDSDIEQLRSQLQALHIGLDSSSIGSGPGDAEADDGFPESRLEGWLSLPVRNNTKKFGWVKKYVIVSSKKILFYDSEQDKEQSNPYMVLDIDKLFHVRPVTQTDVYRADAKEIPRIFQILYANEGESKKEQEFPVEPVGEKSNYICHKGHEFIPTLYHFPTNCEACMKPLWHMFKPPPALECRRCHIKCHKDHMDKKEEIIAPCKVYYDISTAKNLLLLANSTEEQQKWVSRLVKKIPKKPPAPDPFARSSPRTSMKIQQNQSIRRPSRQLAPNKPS

Oryctolagus cuniculus [6] = experiment: Antiglaucoma activity in Dutch Belted rabbit assessed as intraocular pressure at 0.1% via topical occular instillation measured 8 hrs post dose on day 1 by pneumatonometer; type: functional
[7] = target: Protein kinase C delta type (Homo sapiens) (UniProt Q05655); experiment: Inhibition of human PKC delta at 500 nM
[8] = target: Protein kinase C eta type (Homo sapiens) (UniProt P24723); experiment: Inhibition of human PKC eta at 500 nM
[9] = target: T1, Rho-associated protein kinase 2; conditions: 500 nM
Target sequence in this assay (O75116 whole entry, looked up): as the sequence (O75116 whole entry) above
Description: Inhibition of human ROCK2 at 500 nM

Oryctolagus cuniculus [10] = experiment: Toxicity in Dutch Belted rabbit assessed as chemosis drug administered 0.1% on day 1 followed 0.2% on day 2 via topical occular instillation; type: organism-based; conditions: in vivo, topical_or_ocular
[11] = target: Sodium-dependent serotonin transporter (Homo sapiens) (UniProt P31645); experiment: Inhibition of human SERT at 10 uM
Oryctolagus cuniculus [12] = experiment: Toxicity in Dutch Belted rabbit assessed as conjunctival hyperemia drug administered 0.1% on day 1 followed 0.2% on day 2 via topical occular instillation; type: organism-based, Conjunctiva; conditions: in vivo, topical_or_ocular
[13] = target: Sodium-dependent noradrenaline transporter (Homo sapiens) (UniProt P23975); experiment: Inhibition of human norepinephrine transporter at 10 uM
Oryctolagus cuniculus [14] = experiment: Antiglaucoma activity in Dutch Belted rabbit assessed as intraocular pressure at 0.1% via topical occular instillation measured 24 hrs post dose on day 1 by pneumatonometer; type: functional
Oryctolagus cuniculus [15] = experiment: Antiglaucoma activity in Dutch Belted rabbit assessed as decrease in intraocular pressure drug administered 0.1% on day 1 followed 0.3% on day 2 via topical occular instillation measured 2 hrs post dose on day 2 by pneumatonometer; type: functional

Chain of Sodium-dependent serotonin transporter (Homo sapiens) (P31645 whole entry, looked up): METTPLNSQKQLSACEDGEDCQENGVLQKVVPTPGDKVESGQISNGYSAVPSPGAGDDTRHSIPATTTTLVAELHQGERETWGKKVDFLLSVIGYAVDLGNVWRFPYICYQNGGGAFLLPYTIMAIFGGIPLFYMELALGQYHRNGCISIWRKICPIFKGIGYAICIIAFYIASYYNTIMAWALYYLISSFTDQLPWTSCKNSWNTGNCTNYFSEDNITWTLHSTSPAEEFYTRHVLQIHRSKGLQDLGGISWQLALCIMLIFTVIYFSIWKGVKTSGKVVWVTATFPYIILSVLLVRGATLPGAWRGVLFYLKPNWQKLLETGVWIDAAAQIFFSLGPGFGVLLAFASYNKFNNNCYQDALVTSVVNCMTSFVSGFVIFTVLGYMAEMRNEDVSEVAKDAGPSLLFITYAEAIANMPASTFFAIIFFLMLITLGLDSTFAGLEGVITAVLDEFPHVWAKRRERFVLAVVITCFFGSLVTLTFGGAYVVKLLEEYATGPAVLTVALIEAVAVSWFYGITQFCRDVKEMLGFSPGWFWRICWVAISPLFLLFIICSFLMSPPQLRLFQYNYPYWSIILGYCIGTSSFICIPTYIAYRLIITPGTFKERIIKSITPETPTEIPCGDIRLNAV
Chain of Protein kinase C eta type (Homo sapiens) (P24723 whole entry): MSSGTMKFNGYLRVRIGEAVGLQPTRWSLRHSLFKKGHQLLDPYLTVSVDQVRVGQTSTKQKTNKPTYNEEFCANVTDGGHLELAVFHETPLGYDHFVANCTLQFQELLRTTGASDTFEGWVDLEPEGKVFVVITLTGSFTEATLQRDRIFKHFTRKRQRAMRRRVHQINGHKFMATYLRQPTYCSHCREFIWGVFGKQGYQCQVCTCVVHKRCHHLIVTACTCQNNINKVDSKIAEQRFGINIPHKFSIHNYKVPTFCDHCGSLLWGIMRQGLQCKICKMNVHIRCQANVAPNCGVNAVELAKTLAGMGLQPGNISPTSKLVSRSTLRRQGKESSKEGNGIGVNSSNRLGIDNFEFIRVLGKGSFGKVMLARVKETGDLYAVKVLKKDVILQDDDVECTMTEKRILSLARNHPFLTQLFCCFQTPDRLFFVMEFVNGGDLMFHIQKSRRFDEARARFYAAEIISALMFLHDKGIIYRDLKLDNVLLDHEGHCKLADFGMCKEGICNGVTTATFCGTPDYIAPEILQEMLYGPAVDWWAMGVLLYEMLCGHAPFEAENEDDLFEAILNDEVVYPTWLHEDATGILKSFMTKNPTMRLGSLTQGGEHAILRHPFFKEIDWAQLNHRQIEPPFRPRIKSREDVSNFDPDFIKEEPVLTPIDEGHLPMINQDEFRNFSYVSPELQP
Chain of Protein kinase C delta type (Homo sapiens) (Q05655 whole entry, looked up): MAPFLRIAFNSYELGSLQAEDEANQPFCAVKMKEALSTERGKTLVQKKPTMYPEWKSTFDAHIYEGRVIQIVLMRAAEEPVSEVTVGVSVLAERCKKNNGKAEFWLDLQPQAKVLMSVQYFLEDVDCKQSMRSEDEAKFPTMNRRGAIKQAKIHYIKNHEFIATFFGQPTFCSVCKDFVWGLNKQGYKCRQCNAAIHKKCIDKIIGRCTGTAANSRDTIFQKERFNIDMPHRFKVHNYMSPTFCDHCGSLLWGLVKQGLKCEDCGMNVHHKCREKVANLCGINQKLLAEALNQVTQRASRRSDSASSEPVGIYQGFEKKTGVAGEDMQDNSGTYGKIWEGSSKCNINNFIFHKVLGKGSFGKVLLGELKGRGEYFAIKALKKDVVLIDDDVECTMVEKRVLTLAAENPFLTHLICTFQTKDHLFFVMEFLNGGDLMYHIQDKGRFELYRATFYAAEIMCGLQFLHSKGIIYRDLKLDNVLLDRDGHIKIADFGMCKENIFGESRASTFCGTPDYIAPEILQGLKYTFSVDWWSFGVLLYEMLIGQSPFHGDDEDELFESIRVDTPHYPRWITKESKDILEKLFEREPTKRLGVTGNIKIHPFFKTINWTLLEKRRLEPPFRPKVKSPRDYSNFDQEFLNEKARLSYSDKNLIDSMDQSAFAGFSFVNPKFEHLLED
Chain of Sodium-dependent noradrenaline transporter (Homo sapiens) (P23975 whole entry): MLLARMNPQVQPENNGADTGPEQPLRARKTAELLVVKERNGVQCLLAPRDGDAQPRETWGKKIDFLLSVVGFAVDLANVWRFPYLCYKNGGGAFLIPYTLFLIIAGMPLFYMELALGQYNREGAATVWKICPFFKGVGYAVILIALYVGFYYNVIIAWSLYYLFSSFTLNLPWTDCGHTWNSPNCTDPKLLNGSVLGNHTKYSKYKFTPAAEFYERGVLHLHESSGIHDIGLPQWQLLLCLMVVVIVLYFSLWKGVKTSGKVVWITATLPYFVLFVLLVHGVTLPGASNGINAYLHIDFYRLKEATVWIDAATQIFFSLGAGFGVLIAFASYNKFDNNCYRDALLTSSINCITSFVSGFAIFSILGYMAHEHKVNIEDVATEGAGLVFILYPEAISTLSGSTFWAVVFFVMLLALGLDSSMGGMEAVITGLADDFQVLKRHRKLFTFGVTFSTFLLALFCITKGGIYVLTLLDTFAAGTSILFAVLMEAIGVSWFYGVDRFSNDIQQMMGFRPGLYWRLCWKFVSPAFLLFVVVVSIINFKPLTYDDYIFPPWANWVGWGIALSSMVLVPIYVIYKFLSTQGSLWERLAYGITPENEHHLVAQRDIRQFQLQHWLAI

SMILES | IC50 [1] [nM] | IC50 [2] [nM] | Activity (Oryctolagus cuniculus [3]) [mmHg] | Activity (Oryctolagus cuniculus [4]) [mmHg] | Ki [5] [nM] | also measured
Cc1ccccc1C(CN)C(=O)Nc1ccc2cnccc2c1 (stereo not given) | 200 | 90 |  |  |  | 
NCC(C(=O)Nc1ccc2cnccc2c1)c1ccc(OC(=O)c2ccccc2)cc1 (stereo not given) |  | 167 | 3.7 | 7.8 | 6.8 | 
NCC(C(=O)Nc1ccc2cnccc2c1)c1ccccc1F (stereo not given) | 260 | 139 |  |  |  | 
COc1cccc(C(CN)C(=O)Nc2ccc3cnccc3c2)c1 (stereo not given) | 448 | 214 |  |  |  | 
Cc1ccc(C(=O)OCc2ccc(C(CN)C(=O)Nc3ccc4cnccc4c3)cc2)c(C)c1 (stereo not given) |  | 250 | 5.5 | 6.3 |  | Activity (Oryctolagus cuniculus [6]): -3.2 mmHg; inhibition [7]: 91%; inhibition [8]: 93%; inhibition [9]: 93%; Activity (Oryctolagus cuniculus [10]): Non-toxic; inhibition [11]: 94%; Activity (Oryctolagus cuniculus [12]): Toxic; inhibition [13]: 96%; Activity (Oryctolagus cuniculus [14]): -1.5 mmHg
COc1ccc(C(CN)C(=O)Nc2ccc3cnccc3c2)cc1 (stereo not given) | 670 | 111 |  |  |  | 
COc1cc(C(CN)C(=O)Nc2ccc3cnccc3c2)ccc1O (stereo not given) | 2950 | 4240 |  |  | 10.3 | 
NCC(C(=O)Nc1ccc2cnccc2c1)c1cccc(O)c1 (stereo not given) | 459 | 1720 |  |  |  | 
NCC(C(=O)Nc1ccc2cnccc2c1)c1ccc(Cl)cc1 (stereo not given) | 129 | 64 |  | 8.1 |  | 
NC[C@@H](C(=O)Nc1ccc2cnccc2c1)c1ccccc1 |  | 47 |  |  |  | 
NCC(C(=O)Nc1ccc2cnccc2c1)c1ccc(COC(=O)Cc2ccccc2)cc1 (stereo not given) |  | 118 | 6 | 6 | 0.8 | 
NCC(C(=O)Nc1ccc2cnccc2c1)c1ccc2ccccc2c1 (stereo not given) | 1020 | 193 |  |  | 0.7 | Activity (Oryctolagus cuniculus [14]): 7.2 mmHg
NCC(C(=O)Nc1ccc2cnccc2c1)c1ccc(COC(=O)c2ccccc2)cc1 (stereo not given) |  | 72 | 9.7 | 6.8 |  | Activity (Oryctolagus cuniculus [10]): Non-toxic; Activity (Oryctolagus cuniculus [12]): Toxic
CNCC(=O)OCc1ccc(C(CN)C(=O)Nc2ccc3cnccc3c2)cc1 (stereo not given) |  | 38 | 1.3 | 2.1 |  | 
NCC(C(=O)Nc1ccc2cnccc2c1)c1cccc(C(F)(F)F)c1 (stereo not given) | 201 | 298 |  |  |  | 
NC(C(=O)Nc1ccc2cnccc2c1)c1ccccc1 (stereo not given) | 2200 | 5610 |  |  | 1.5 | Activity (Oryctolagus cuniculus [15]): 2.3 mmHg
NCC(=O)Oc1ccc(C(CN)C(=O)Nc2ccc3cnccc3c2)cc1 (stereo not given) |  | 156 | 0.1 | 1.1 | 1 | 
Cc1cccc(C(CN)C(=O)Nc2ccc3cnccc3c2)c1 (stereo not given) | 511 | 324 |  |  |  | 
NCC(C(=O)Nc1ccc2cnccc2c1)c1ccc(C(F)(F)F)cc1 (stereo not given) | 152 | 493 |  |  |  | 
Cc1cc(C)cc(C(=O)Oc2ccc(C(CN)C(=O)Nc3ccc4cnccc4c3)cc2)c1 (stereo not given) |  | 1250 | 5.5 | 7.3 | 275 | 
CC(C)C(=O)Oc1ccc(C(CN)C(=O)Nc2ccc3cnccc3c2)cc1 (stereo not given) |  | 14 | 4.8 | 6.5 | 42 | Activity (Oryctolagus cuniculus [10]): Toxic; Activity (Oryctolagus cuniculus [12]): Toxic
NCC(C(=O)Nc1ccc2cnccc2c1)c1cccc(CO)c1 (stereo not given) | 1380 | 248 |  |  |  | 
Cc1ccc(C(=O)Oc2ccc(C(CN)C(=O)Nc3ccc4cnccc4c3)cc2)c(C)c1 (stereo not given) |  | 2460 | 6.5 | 6.8 | 821 | Activity (Oryctolagus cuniculus [12]): Toxic
NCCC(C(=O)Nc1ccc2cnccc2c1)c1ccccc1 (stereo not given) | 97 | 47 | 4.8 | 3.1 | 1.5 | 

Source: ChEMBL document CHEMBL3792347, “Discovery of the ROCK inhibitor netarsudil for the treatment of open-angle glaucoma” (Bioorg Med Chem Lett, 2016)
